Non-standard residues stand in square brackets, D forms with d. No end group written: not given here.
Legend:
[1] = system: 3T3-L1 mouse adipocytes; assay: Free fatty acid levels in cultured 3T3-L1 mouse adipocytes and insulin dependence (Example 17); format: cell-based; conditions: isoproterenol 0.1 nM; for Free Fatty Acid Levels, Percent of Isoproterenol Control Activity No Insulin: peptide 10 μM alone, relative to isoproterenol treated cells; for Free Fatty Acid Levels, Percent of Isoproterenol Control Activity With Insulin: peptide 10 μM with 0.25 nM insulin, relative to 0.25 nM insulin treated cells
[2] = system: C2C12 cells; assay: Glucose utilization in cultured C2C12 cells and insulin dependence; format: cell-based, mouse; conditions: 22 h; for Glucose Utilization, Percent of Control Activity No Insulin: peptide 10 μM alone, glucose in medium relative to untreated cells; for Glucose Utilization, Percent of Control Activity With Insulin: peptide 10 μM with 5-20 nM insulin, glucose in medium relative to insulin treated cells
Source text: The effect of the peptides on glucose homeostasis can be assessed using an assay to monitor glucose utilization by cultured cells such as mouse myotubes. […] C2C12 mouse muscle cell line was purchased from Millipore Sigma (Saint Louis, Mo.). […] Three days after plating the medium was removed and with Differentiation Medium (DMEM/low glucose (1 g/L)+2% Horse Serum+antibiotics) added. […] After 5 days of differentiation, the medium was removed from myotube cultures and replaced with Assay Medium (DMEM/low glucose (1 g/L)+antibiotics). […] Following the 5 h incubation the medium was removed and fresh Assay Medium containing compounds added; 10 μM peptide in absence or presence of 5-20 nM insulin, or 1 mM metformin as a potent stimulator of glucose utilization. […] Following 22 h incubation, conditioned medium from each well was transferred to a fresh 96-well plate. Glucose concentrations in the medium were determined using a Glucose Assay kit (Abcam; Cambridge, Mass.) according to the manufacturer's instructions; absorbance measured using a Cytation 3 plate reader at 570 nm (BioTek, Winooski, Vt.). Absorbance values were expressed as percent control activity relative to untreated treated cells (no insulin) for 10 μM peptide alone or 5-20 nM insulin treated cells (with insulin) for 10 μM peptide in presence of 5-20 nM insulin. Untreated cells were used as reference for basal glucose utilization. The relative standard deviation from plate to plate of untreated control was <10%. Metformin at 1 mM was used as a potent control for increasing glucose utilization. Glucose levels for metformin (1 mM) treatment were <10% of the untreated control value. Data are presented as averages values from 2-3 independent experiments with each data point performed in triplicate.

[3] = system: Male DIO mice; assay: Metabolic parameters in diet induced obese (DIO) mice, Example 16; format: in vivo, mouse; conditions: 5 mg/kg twice daily intraperitoneal, 10 days, N = 8
Protocol: Male C57BL/6 mice were maintained on a high fat diet for 18 weeks to develop diet induced obesity. Animals were randomized to treatment groups based on blood glucose levels and body weight. The peptides of the invention were administered to groups of male DIO mice twice daily by intraperitoneal injection at a dose of 5 mg/kg/dose for 10 days (N=8 animals per treatment group). An additional group of male DIO mice (n=8) received vehicle (water) alone administered twice daily by intraperitoneal injection. Body weight, blood glucose levels and food intake were monitored. Body mass distribution (fat vs lean) was determined by quantitative whole body NMR prior to dosing and at the end of dosing.

[4] = biological target: T1, Apelin Receptor (APJ) (Homo sapiens, UniProt P35414); assay: cAMP levels in CHO-K1 AGTRL1 Gi cells, single concentration (HitHunter); format: cell-based; set-up: host or cells: CHO-K1 AGTRL1 Gi cells; conditions: peptide 10 μM with 10 μM forskolin, 30 min; 500 nM Pyr-Apelin-13 response = 100%
T1 sequence (P35414 1-380): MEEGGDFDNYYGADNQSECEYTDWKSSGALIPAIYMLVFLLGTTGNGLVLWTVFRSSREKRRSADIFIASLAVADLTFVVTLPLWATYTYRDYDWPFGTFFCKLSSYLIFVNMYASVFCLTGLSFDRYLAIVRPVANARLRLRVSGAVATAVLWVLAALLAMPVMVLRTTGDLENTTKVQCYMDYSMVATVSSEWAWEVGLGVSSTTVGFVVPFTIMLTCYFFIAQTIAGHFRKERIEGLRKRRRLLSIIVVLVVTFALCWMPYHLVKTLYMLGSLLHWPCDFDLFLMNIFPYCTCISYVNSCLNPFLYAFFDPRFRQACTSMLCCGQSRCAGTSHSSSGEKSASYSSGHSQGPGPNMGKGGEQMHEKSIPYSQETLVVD
Protocol: The effect of the peptides on activation of Apelin Receptor (APJ) can be assessed using an assay to monitor inhibition of cAMP expression in cultured cells overexpressing APJ such as CHO-K1, derived from Chinese hamster ovary. Peptides were initially prepared as 30 mM stock in DMSO and diluted to 3 mM in H2O or directly as 3 mM stock in H2O; used at a final concentration of 10 μM (0-0.1% DMSO). […] CHO-K1 AGTRL1 Gi cells stably overexpressing APJ were purchased from Eurofins-DiscoverX (Fremont, Calif.). CHO-K1 AGTRL1 Gi cells were seeded onto 384-well plates in standard culture medium (F12K+10% Fetal Bovine Serum+antibiotics) at 10,000 cells/well and allowed to adhere overnight at 37° C. in a humidified atmosphere of 5% CO2/95% air. […] Following 30 min incubation at 37° C., cAMP levels in response to various treatments were quantified using HitHunter cAMP kit according to manufactures protocol (Eurofins-DiscoverX); chemiluminescent signal was measured using a Cytation 3 plate reader (BioTek, Winooski, Vt.).

[5] = biological target: T1, Apelin Receptor (APJ); assay: β-Arrestin recruitment in CHO-K1 AGTRL1 β-Arrestin cells (PathHunter); format: cell-based; set-up: host or cells: CHO-K1 AGTRL1 β-Arrestin cell line; conditions: peptide 10 μM, 90 min; 500 nM Apelin-13 response = 100%
Protocol: The effect of the peptides on activation of Apelin Receptor (APJ) can be assessed using an assay to monitor β-Arrestin recruitment in cultured cells overexpressing APJ such as CHO-K1, derived from Chinese hamster ovary. β-Arrestin recruitment assays were performed by Eurofins-DiscoverX (Fremont, Calif.) using CHO-K1 AGTRL1 β-Arrestin cell line (co-expressing ProLink tagged human APJ and Enzyme Acceptor tagged β-Arrestin) and PathHunter detection kit. Peptides were initially prepared either as 10 mM stock in DMSO and used at a final concentration of 10 μM (0.1% DMSO). CHO-K1 AGTRL1 β-Arrestin cells were seed onto 384-well plates in standard medium. […] Following 90 min incubation at 37° C., β-Arrestin recruitment in response to various treatments was quantified using a chemiluminescent complementation reporter assay to measure association of tagged human APJ (ProLink tag) and tagged β-Arrestin (Enzyme Acceptor tag).

## 13 (RRMMGMVFQELCG[dA]) [compound 13]
[1]
  Free Fatty Acid Levels, Percent of Isoproterenol Control Activity No Insulin: 105%
  Free Fatty Acid Levels, Percent of Isoproterenol Control Activity With Insulin: 56.4%
[2]
  Glucose Utilization, Percent of Control Activity No Insulin: 104.4%
  Glucose Utilization, Percent of Control Activity With Insulin: 97.8%

## 10 (RRMMGMVYQCLCG[dA]; cysteine pairing not given here) [compound 10]
[1]
  Free Fatty Acid Levels, Percent of Isoproterenol Control Activity No Insulin: 97.9%
  Free Fatty Acid Levels, Percent of Isoproterenol Control Activity With Insulin: 48.7%
[2]
  Glucose Utilization, Percent of Control Activity No Insulin: 102.6%
  Glucose Utilization, Percent of Control Activity With Insulin: 76.3%
[3]
  Difference from Vehicle Control: Decrease from Baseline in Blood Glucose: -8.37 mg/dL
  Difference from Vehicle Control: Decrease from Baseline in Body Weight: −5.47%
  Difference from Vehicle Control: Decrease from Baseline in Fat Mass: -2.16 g

## 19 (RRMVFQCLCG[dA]; cysteine pairing not given here) [compound 19]
[1]
  Free Fatty Acid Levels, Percent of Isoproterenol Control Activity No Insulin: 105%
  Free Fatty Acid Levels, Percent of Isoproterenol Control Activity With Insulin: 79.0%
[2]
  Glucose Utilization, Percent of Control Activity No Insulin: 100.1%
  Glucose Utilization, Percent of Control Activity With Insulin: 76.5%

## 16 (RRMMGMVFQCLSG[dA]) [compound 16]
[1]
  Free Fatty Acid Levels, Percent of Isoproterenol Control Activity No Insulin: 110%
  Free Fatty Acid Levels, Percent of Isoproterenol Control Activity With Insulin: 63.0%
[2]
  Glucose Utilization, Percent of Control Activity No Insulin: 99.7%
  Glucose Utilization, Percent of Control Activity With Insulin: 88.4%

## 14 (RRMMGMVFQCLEG[dA]) [compound 14]
[1]
  Free Fatty Acid Levels, Percent of Isoproterenol Control Activity No Insulin: 100%
  Free Fatty Acid Levels, Percent of Isoproterenol Control Activity With Insulin: 51.0%
[2]
  Glucose Utilization, Percent of Control Activity No Insulin: 102.4%
  Glucose Utilization, Percent of Control Activity With Insulin: 112.3%

## 8 (RRMMGMVFQCLCG[dA]; cysteine pairing not given here) [compound 8]
[1]
  Free Fatty Acid Levels, Percent of Isoproterenol Control Activity No Insulin: 106%
  Free Fatty Acid Levels, Percent of Isoproterenol Control Activity With Insulin: 57.8%
[2]
  Glucose Utilization, Percent of Control Activity No Insulin: 90.8%
  Glucose Utilization, Percent of Control Activity With Insulin: 85.5%
[3]
  Difference from Vehicle Control: Decrease from Baseline in Blood Glucose: -16.9 mg/dL
  Difference from Vehicle Control: Decrease from Baseline in Body Weight: −8.01%
  Difference from Vehicle Control: Decrease from Baseline in Fat Mass: -3.88 g

## CSCC[C@H](NC(=O)CNC(=O)[C@H](CCSC)NC(=O)[C@H](CCSC)NC(=O)[C@H](CCCNC(=N)N)NC(=O)[C@H](CCCNC(=N)N)NC(=O)[C@@H](N)CCSC)C(=O)N[C@H](C(=O)N[C@@H](Cc1ccccc1)C(=O)N[C@@H](CCC(N)=O)C(=O)N[C@@H](CS)C(=O)N[C@@H](CC(C)C)C(=O)N[C@@H](CS)C(=O)NCC(=O)N[C@@H](CC(C)C)C(=O)O)C(C)C [compound 7]
[1]
  Free Fatty Acid Levels, Percent of Isoproterenol Control Activity No Insulin: 102%
  Free Fatty Acid Levels, Percent of Isoproterenol Control Activity With Insulin: 71.3%
[2]
  Glucose Utilization, Percent of Control Activity No Insulin: 98.1%
  Glucose Utilization, Percent of Control Activity With Insulin: 100.7%
[3]
  Difference from Vehicle Control: Decrease from Baseline in Blood Glucose: -20.0 mg/dL
  Difference from Vehicle Control: Decrease from Baseline in Body Weight: −3.19%
  Difference from Vehicle Control: Decrease from Baseline in Fat Mass: -0.84 g
[4]
  cAMP Levels, Percent of Pyr-Apelin-13 Control Activity: 109%
[5]
  β-Arrestin Recruitment, Percent of Apelin-13 Control Activity: 91%

## 18 (RRXXGXVFQCLCGA; (3)..(3) Xaa is Norleucine; (4)..(4) Xaa is Norleucine; (6)..(6) Xaa is Norleucine; (14)..(14) D-Ala) [compound 18]
[1]
  Free Fatty Acid Levels, Percent of Isoproterenol Control Activity No Insulin: 110%
  Free Fatty Acid Levels, Percent of Isoproterenol Control Activity With Insulin: 81.1%
[2]
  Glucose Utilization, Percent of Control Activity No Insulin: 103.6%
  Glucose Utilization, Percent of Control Activity With Insulin: 122.1%

## 11 (RRMMGMVAQCLCGA) [compound 11]
[1]
  Free Fatty Acid Levels, Percent of Isoproterenol Control Activity No Insulin: 104%
  Free Fatty Acid Levels, Percent of Isoproterenol Control Activity With Insulin: 58.5%
[2]
  Glucose Utilization, Percent of Control Activity No Insulin: 107.2%
  Glucose Utilization, Percent of Control Activity With Insulin: 84.5%
[3]
  Difference from Vehicle Control: Decrease from Baseline in Blood Glucose: -4.91 mg/dL
  Difference from Vehicle Control: Decrease from Baseline in Body Weight: −4.05%
  Difference from Vehicle Control: Decrease from Baseline in Fat Mass: -2.34 g

## 12 (RRMMGMVEQCLCG[dA]; cysteine pairing not given here) [compound 12]
[1]
  Free Fatty Acid Levels, Percent of Isoproterenol Control Activity No Insulin: 103%
  Free Fatty Acid Levels, Percent of Isoproterenol Control Activity With Insulin: 54.6%
[2]
  Glucose Utilization, Percent of Control Activity No Insulin: 102.3%
  Glucose Utilization, Percent of Control Activity With Insulin: 84.5%
[3]
  Difference from Vehicle Control: Decrease from Baseline in Blood Glucose: -6.75 mg/dL
  Difference from Vehicle Control: Decrease from Baseline in Body Weight: −2.89%
  Difference from Vehicle Control: Decrease from Baseline in Fat Mass: -1.73 g

## 17 (RRMMGMVFQSLSG[dA]) [compound 17]
[1]
  Free Fatty Acid Levels, Percent of Isoproterenol Control Activity No Insulin: 98.4%
  Free Fatty Acid Levels, Percent of Isoproterenol Control Activity With Insulin: 87.7%
[2]
  Glucose Utilization, Percent of Control Activity No Insulin: 102.6%
  Glucose Utilization, Percent of Control Activity With Insulin: 96.2%

## CSCC[C@H](NC(=O)CNC(=O)[C@H](CCSC)NC(=O)[C@H](CCSC)NC(=O)[C@H](CCCNC(=N)N)NC(=O)[C@@H](N)CCCNC(=N)N)C(=O)N[C@H](C(=O)N[C@@H](Cc1ccccc1)C(=O)N[C@@H](CCC(N)=O)C(=O)N[C@@H](CO)C(=O)N[C@@H](CC(C)C)C(=O)N[C@@H](CS)C(=O)NCC(=O)N[C@H](C)C(=O)O)C(C)C [compound 15]
[1]
  Free Fatty Acid Levels, Percent of Isoproterenol Control Activity No Insulin: 109%
  Free Fatty Acid Levels, Percent of Isoproterenol Control Activity With Insulin: 89.0%
[2]
  Glucose Utilization, Percent of Control Activity No Insulin: 103%
  Glucose Utilization, Percent of Control Activity With Insulin: 106.9%
[4]
  cAMP Levels, Percent of Pyr-Apelin-13 Control Activity: 105%
[5]
  β-Arrestin Recruitment, Percent of Apelin-13 Control Activity: 40%

— US20220324909A1, “THERAPEUTIC PEPTIDES” (COHBAR, INC., priority 2019, published 2022)
